Measurements published in the supplement of paper PMC10307832.

Legend:
Experiment in all cases: relative viability (nuclei count vs DMSO), 5 days (fraction); higher = more cells survive
Selisistat = compound: C1CC(C2=C(C1)C3=C(N2)C=CC(=C3)Cl)C(=O)N [Selisistat]
Summary of the method: (§1)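 Five library-drug doses spaced by √10 were pinned onto vehicle-anchored 1536-well plates of lung cancer cell lines that had been kept overnight at 37 °C. Cells went 5 days without medium change, then were fixed, permeabilised and Hoechst-stained together, imaged at 4× and counted by MetaXpress. Viability is the ratio of treated-well to vehicle-well nuclei, taken as a median over plates. Plates required control CV below 25% and at least one doubling.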

Serdemetan = compound: c1ccc2c(CCNc3ccc(Nc4ccncc4)cc3)c[nH]c2c1 [Serdemetan]
Summary of the method: as §1

Selisistat + Decitabine = compound: C1CC(C2=C(C1)C3=C(N2)C=CC(=C3)Cl)C(=O)N [Selisistat] + Nc1ncn([C@H]2C[C@H](O)[C@@H](CO)O2)c(=O)n1 [Decitabine] (partner 2 µM)
Summary of the method: (§2)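 Lung cancer cell lines were seeded in 1536-well plates and dosed by pin tool the next day, with either a single drug or a fixed anchor-drug dose combined with five library-drug doses (not always all listed) spaced in √10 steps. Five days later, one step fixed the cells and stained their nuclei (final 0.05% Triton X-100, 1% formaldehyde, 1 ug/ml Hoechst), and nuclei were counted on 4× images. Relative viability is the nuclei count in treated wells divided by the count in vehicle wells, and each value is the median of duplicate plates.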

Serdemetan + Linsitinib = compound: c1ccc2c(CCNc3ccc(Nc4ccncc4)cc3)c[nH]c2c1 [Serdemetan] + C[C@]1(O)C[C@@H](c2nc(-c3ccc4ccc(-c5ccccc5)nc4c3)c3c(N)nccn32)C1 [Linsitinib] (partner 1 µM)
Summary of the method: as §2

UMC-11 showed a relative viability (Selisistat; 0.4 µM) of 1, a relative viability (Selisistat; 1.265 µM) of 0.962 and a relative viability (Selisistat; 4 µM) of 0.883. The relative viability (Selisistat; 12.65 µM) was 0.978, the relative viability (Selisistat; 40 µM) was 1.06 and the relative viability (Serdemetan; 0.04 µM) was 0.935. For the same cell line, the relative viability (Serdemetan; 0.1265 µM) was 1.01, the relative viability (Serdemetan; 0.4 µM) was 0.902 and the relative viability (Serdemetan; 1.265 µM) was 0.661. The relative viability (Serdemetan; 4 µM) was 0.924, the relative viability (Selisistat + Decitabine; first compound 0.4 µM) was 0.604 and the relative viability (Selisistat + Decitabine; first compound 1.265 µM) was 0.688. The relative viability (Selisistat + Decitabine; first compound 4 µM) was 0.646, the relative viability (Selisistat + Decitabine; first compound 12.65 µM) was 0.676 and the relative viability (Selisistat + Decitabine; first compound 40 µM) was 0.637. For the same cell line, the relative viability (Serdemetan + Linsitinib; first compound 0.04 µM) was 1.03, the relative viability (Serdemetan + Linsitinib; first compound 0.1265 µM) was 0.902 and the relative viability (Serdemetan + Linsitinib; first compound 0.4 µM) was 0.873. The relative viability (Serdemetan + Linsitinib; first compound 1.265 µM) was 0.701 and the relative viability (Serdemetan + Linsitinib; first compound 4 µM) was 0.828.
